pEC50: −log10 of the molar value. Values after ≈ are worked out from the molar mass of the structure shown. Read-outs that look alike come from different tables or passages of the source. Positions of bridges follow the written chain, without caps; N, C: chain ends. Non-standard residues stand in square brackets, D forms with d. Residues, ends and D or L forms follow the SMILES beside them. Lys(N3) = [N-]=[N+]=NCCCC[C@H](N)C(=O)O; R8 = C=CCCCCCC[C@@](C)(N)C(=O)O; Cba = N[C@@H](CC1CCC1)C(=O)O; S5 = C=CCCC[C@](C)(N)C(=O)O; Ahx = NCCCCCC(=O)O; βAla = NCCC(=O)O
Tests used:
[1] = Lactate dehydrogenase (LDH) release assay; type: cell-based
Procedure: (§1) HCT116 cells were stably transfected with a p53 responsive β-lactamase reporter and expanded in McCoy’s 5 A Medium with 10% fetal bovine serum (FBS), Blasticidin, and Penicillin/Streptomycin and then transferred to 1.5 ml freezing vials and stored under liquid nitrogen in growth media containing 5% DMSO. […] The cells were then seeded into a 384-well plate at a density of 8000 cells per well. […] The final working concentration of DMSO was 0.5%. Lactate dehydrogenase release was detected using the CytoTox-ONE Homogenous Membrane Integrity Assay Kit (Promega), as per the manufacturer’s instructions. Measurements were carried out using the Tecan plate reader. […] Measurements were taken a minimum of three times (biological replicates) and values are reported as geometric means of the replicates.

HCT116 cells = experiment: Lactate dehydrogenase (LDH) release assay; type: cell-based
Procedure: as §1

[2] = Solubility assay (kinetic solubility, PBS pH 7); type: physicochemical; conditions: pH 7, PBS; for solubility kinetic: pH 7, aqueous buffer, kinetic from dmso stock, read-out: Solubility
Procedure: The standard reference solutions were prepared by diluting the 10 mM stock in 10:80:10 solution of acetonitrile:methanol:DMSO to 100 µM.
The solubility value is calculated by the following equation:
Solubility [µM] = (Peak area of sample/ Peak area of standard) (Standard concentration)

[3] = Experimental LogD (partition coefficient); conditions: for logD: not stated, Partition Coeff LogD
in vitro = conditions: Nanoclick permeability assay EC50
Text: Further, there have been several literature reports[18]–[20] that highlight that the combination of hydrophobic character and positive charge can result in mast cell degranulation (MCD), a potentially fatal condition[18]–[20]. […] The NanoClick assay[22] determines permeability of azide-labeled peptides by combining intracellular copper-free click chemistry with NanoBRET technology. Specifically, if an azido-peptide achieves cytosolic exposure, it will react with a cyclooctyne-decorated Halotag construct that is fused with nanoluciferase. This reaction blocks the click labelling of a subsequently added azido-labeled acceptor dye, thus decreasing the NanoBRET signal in a manner that is target-binding agnostic.
This assay was previously described in detail. The assay was performed in 384-well white assay plates (PerkinElmer CUSG03874) using assay-ready frozen cells that had been transiently transfected with the NanoLuc-HaloTag vector that were thawed at plated in complete media at a density of 6000 cells/ well and incubated at 37 °C 5% CO2 overnight. DIBAC-CA was diluted in assay buffer (OptiMem without phenol red + 1% FBS) and added to cells at a final concentration of 3 μM and incubated at 37 °C 5% CO2 for 1 h. Cells were subsequently centrifuged using a BlueWasher instrument (Blue Cat Bio) to remove the DIBAC-CA solution and washed two times with HBSS (Ca2 + , Mg2 + ). A volume of 30 μL of assay buffer was added back to cell plates. Peptides were serially diluted 4-fold in DMSO with a Hamilton Star apparatus and then delivered into assay plates with an acoustic liquid handler Labcyte ECHO (300 nl, 1% DMSO in-well concentration). After incubating cells with peptide for the desired time (4 or 18 h), the HaloTag ligand, NanoBret618-azide, was added to each well at a final concentration of 10 μM. […] Following addition of NanoBRET Nano-Glo Substrate, donor emission (450 nm) and acceptor emission (610 nm) were measured using an Envision instrument (PerkinElmer).

SMILES | pEC50 ([1]; LDH: Cytotoxicity assay: EC50) | LDH: Cytotoxicity assay: % Effect (HCT116 cells) [%] | solubility kinetic [2] [µM] | logD [3] | also measured
CC(=O)N[C@@H](CCCNC(=N)N)C(=O)NCCC(=O)N[C@@H](CC(C)C)C(=O)N[C@H](C(=O)N[C@@H](Cc1ccccc1)C(=O)N[C@]1(C)CCCCCCC=CCCC[C@@](C)(C(=O)N[C@@H](CO)C(=O)N[C@@H](C)C(=O)N[C@@H](C)C(N)=O)NC(=O)[C@H](CC2CCC2)NC(=O)[C@H](CCC(N)=O)NC(=O)[C@H](C)NC(=O)[C@H](Cc2c[nH]c3ccccc23)NC(=O)[C@H](Cc2ccc(O)cc2)NC(=O)[C@H](CCC(=O)O)NC1=O)[C@@H](C)O [MP-000] | < 4.30 | 6.079 | 2 (≈ 3.94 µg/mL) | 2.66 | 
CC(=O)N[C@@H](CCCNC(=N)N)C(=O)N[C@@H](CCCNC(=N)N)C(=O)NCCCCCC(=O)N[C@@H](CCCCN=[N+]=[N-])C(=O)N[C@@H](CC(C)C)C(=O)N[C@H](C(=O)N[C@@H](Cc1ccccc1)C(=O)N[C@]1(C)CCCCCCC=CCCC[C@@](C)(C(=O)N[C@@H](CO)C(=O)N[C@@H](C)C(=O)N[C@@H](C)C(N)=O)NC(=O)[C@H](CC2CCC2)NC(=O)[C@H](CCC(N)=O)NC(=O)[C@H](C)NC(=O)[C@H](Cc2c[nH]c3ccccc23)NC(=O)[C@H](Cc2ccc(O)cc2)NC(=O)[C@H](CCC(=O)O)NC1=O)[C@@H](C)O [MP-007] | < 4.30 | 23.39 | 37 (≈ 86 µg/mL) | 2.83 | 
CC(C)C[C@@H]1NC(=O)[C@H](C)NC(=O)[C@H](Cc2c[nH]c3ccccc23)NC(=O)[C@H](Cc2ccc(O)cc2)NC(=O)[C@H](CCC(=O)O)NC(=O)[C@](C)(NC(=O)[C@H](Cc2ccccc2)NC(=O)[C@H](CO)NC(=O)[C@@H](NC(=O)CNC(=O)[C@H](CO)NC(=O)CNC(=O)[C@@H](N)CCCCN=[N+]=[N-])[C@@H](C)O)CCCCCCC=CCCC[C@@](C)(C(=O)N[C@@H](CCC(=O)O)C(N)=O)NC(=O)[C@H](CC(C)C)NC1=O [MP-011] | < 4.30 | 18.05 | 23 (≈ 43.8 µg/mL) | 2.05 | 
CC(=O)N[C@@H](CCCCN=[N+]=[N-])C(=O)N[C@@H](CCCCN)C(=O)N[C@@H](CCCCN)C(=O)NCCCCCC(=O)N[C@H](C(=O)N[C@@H](CO)C(=O)N[C@@H](Cc1ccccc1)C(=O)N[C@]1(C)CCCCCCC=CCCC[C@@](C)(C(=O)N[C@@H](CCC(=O)O)C(=O)N[C@@H](CC(N)=O)C(=O)N[C@@H](Cc2ccccc2)C(N)=O)NC(=O)[C@H](CC(C)C)NC(=O)[C@H](CC(C)C)NC(=O)[C@H](C)NC(=O)[C@H](Cc2c[nH]c3ccccc23)NC(=O)[C@H](Cc2ccc(O)cc2)NC(=O)[C@H](CCC(=O)O)NC1=O)[C@@H](C)O [MP-082] (Ac-[Lys(N3)]KK[Ahx]TSF[R8]EYWALL[S5]ENF-NH2; staple 8-15) |  |  | 2 (≈ 4.75 µg/mL) | 2.46 | pEC50 ([1]; LDH: Cytotoxicity assay EC50): < 4.30
CC(=O)N[C@@H](CCCCN=[N+]=[N-])C(=O)N[C@@H](CCCNC(=N)N)C(=O)N[C@@H](CCCNC(=N)N)C(=O)NCCCCCC(=O)N[C@H](C(=O)N[C@@H](CO)C(=O)N[C@@H](Cc1ccccc1)C(=O)N[C@]1(C)CCCCCCC=CCCC[C@@](C)(C(=O)N[C@@H](CCC(=O)O)C(=O)N[C@@H](CC(N)=O)C(=O)N[C@@H](Cc2ccccc2)C(N)=O)NC(=O)[C@H](CC(C)C)NC(=O)[C@H](CC(C)C)NC(=O)[C@H](C)NC(=O)[C@H](Cc2c[nH]c3ccccc23)NC(=O)[C@H](Cc2ccc(O)cc2)NC(=O)[C@H](CCC(=O)O)NC1=O)[C@@H](C)O [MP-083] (Ac-[Lys(N3)]RR[Ahx]TSF[R8]EYWALL[S5]ENF-NH2; staple 8-15) |  |  | 4 (≈ 9.73 µg/mL) | 2.54 | pEC50 ([1]; LDH: Cytotoxicity assay EC50): < 4.30; LDH: Cytotoxicity assay % Effect (HCT116 cells): 0.165%
CC(=O)N[C@@H](CCCCN=[N+]=[N-])C(=O)N[C@@H](CCCCN)C(=O)N[C@@H](CCCCN)C(=O)N[C@@H](CCCCN)C(=O)NCCCCCC(=O)N[C@H](C(=O)N[C@@H](CO)C(=O)N[C@@H](Cc1ccccc1)C(=O)N[C@]1(C)CCCCCCC=CCCC[C@@](C)(C(=O)N[C@@H](CCC(=O)O)C(=O)N[C@@H](CC(N)=O)C(=O)N[C@@H](Cc2ccccc2)C(N)=O)NC(=O)[C@H](CC(C)C)NC(=O)[C@H](CC(C)C)NC(=O)[C@H](C)NC(=O)[C@H](Cc2c[nH]c3ccccc23)NC(=O)[C@H](Cc2ccc(O)cc2)NC(=O)[C@H](CCC(=O)O)NC1=O)[C@@H](C)O [MP-085] (Ac-[Lys(N3)]KKK[Ahx]TSF[R8]EYWALL[S5]ENF-NH2; staple 9-16) |  |  | 2 (≈ 5.01 µg/mL) | 2.39 | pEC50 ([1]; LDH: Cytotoxicity assay EC50): < 4.30
CC(=O)N[C@@H](CC(C)C)C(=O)N[C@H](C(=O)N[C@@H](Cc1ccccc1)C(=O)N[C@]1(C)CCCCCCC=CCCC[C@@](C)(C(=O)N[C@@H](CO)C(=O)N[C@@H](C)C(=O)N[C@@H](C)C(N)=O)NC(=O)[C@H](CC2CCC2)NC(=O)[C@H](CCC(N)=O)NC(=O)[C@H](C)NC(=O)[C@H](Cc2c[nH]c3cc(Cl)ccc23)NC(=O)[C@H](Cc2ccc(O)cc2)NC(=O)[C@H](CCC(=O)O)NC1=O)[C@@H](C)O [MP-192] | 4.70 |  |  |  | Solubility [2]: Poorly Behaved; Partition Coeff LogD [3]: Poorly Behaved
CC(=O)N[C@@H](CCCCN=[N+]=[N-])C(=O)N[C@H](C(=O)N[C@@H](Cc1ccccc1)C(=O)N[C@]1(C)CCCCC#CC#CCCC[C@@](C)(C(=O)N[C@@H](CCC(=O)O)C(=O)N[C@@H](C)C(=O)N[C@@H](Cc2ccccc2)C(=O)N[C@@H](C)C(=O)N[C@@H](C)C(=O)N[C@@H](Cc2ccccc2)C(N)=O)NC(=O)[C@H](CC2CCC2)NC(=O)[C@H](CCC(N)=O)NC(=O)[C@H](C)NC(=O)[C@H](Cc2c[nH]c3ccccc23)NC(=O)[C@H](Cc2ccc(O)cc2)NC(=O)[C@H](CCC(=O)O)NC1=O)[C@@H](C)O [MP-444, Ac-K(N3)-TF(X)EYWAQ(Cba)(X)EAFAAF-NH2] |  |  | 167 (≈ 365 µg/mL) |  | pEC50 ([1]; 0% FBS 4Hr, read-out: LDH: Cytotoxicity assay EC50): < 4.29; pEC50 ([1]; 10% FBS 16Hr, read-out: LDH: Cytotoxicity assay EC50): < 4.29; LDH: Cytotoxicity assay % Effect (HCT116 cells; 0% FBS 4Hr): 17.89%; LDH: Cytotoxicity assay % Effect (HCT116 cells; 10% FBS 16Hr): 4.968%
CC(=O)N[C@@H](CCCCN=[N+]=[N-])C(=O)NCCC(=O)N[C@@H](CC(C)C)C(=O)N[C@H](C(=O)N[C@@H](Cc1ccccc1)C(=O)N[C@]1(C)CCCCCCC=CCCC[C@@](C)(C(=O)N[C@@H](CO)C(=O)N[C@@H](C)C(=O)N[C@@H](CCCNC(=N)N)C(N)=O)NC(=O)[C@H](CC2CCC2)NC(=O)[C@H](CCC(N)=O)NC(=O)[C@H](C)NC(=O)[C@H](Cc2c[nH]c3ccccc23)NC(=O)[C@H](Cc2ccc(O)cc2)NC(=O)[C@H](CCC(=O)O)NC1=O)[C@@H](C)O [MP-480] (Ac-[Lys(N3)][βAla]LTF[R8]EYWAQ[Cba][S5]SAR-NH2; staple 6-13) | < 4.30 |  |  |  | cell entry EC50 (in vitro): 0.1 µM
CC(=O)N[C@@H](CCCCN=[N+]=[N-])C(=O)NCCC(=O)N[C@@H](CC(C)C)C(=O)N[C@H](C(=O)N[C@@H](Cc1ccccc1)C(=O)N[C@]1(C)CCCCC#CC#CCCC[C@@](C)(C(=O)N[C@@H](C)C(=O)N[C@@H](C)C(=O)N[C@@H](C)C(=O)N[C@@H](C)C(=O)N[C@@H](C)C(=O)N[C@H](C)C(N)=O)NC(=O)[C@H](CC2CCC2)NC(=O)[C@H](CCC(N)=O)NC(=O)[C@H](C)NC(=O)[C@H](Cc2c[nH]c3ccccc23)NC(=O)[C@H](Cc2ccc(O)cc2)NC(=O)[C@H](CCC(=O)O)NC1=O)[C@@H](C)O [MP-616] |  |  |  | 2.67 | pEC50 ([1]; 0% FBS 4Hr, read-out: LDH: Cytotoxicity assay: EC50): < 4.29; pEC50 ([1]; 10% FBS 16Hr, read-out: LDH: Cytotoxicity assay: EC50): < 4.29; LDH: Cytotoxicity assay: % Effect (HCT116 cells; 0% FBS 4Hr): 12.87%; LDH: Cytotoxicity assay: % Effect (HCT116 cells; 10% FBS 16Hr): 8.138%
CC(=O)N[C@@H](CCCNC(=N)N)C(=O)NCCC(=O)N[C@@H](CCCCN=[N+]=[N-])C(=O)N[C@@H](CC(C)C)C(=O)N[C@H](C(=O)N[C@@H](Cc1ccccc1)C(=O)N[C@]1(C)CCCCCCC=CCCC[C@@](C)(C(=O)N[C@@H](CO)C(=O)N[C@@H](C)C(=O)N[C@@H](C)C(N)=O)NC(=O)[C@H](CC2CCC2)NC(=O)[C@H](CCC(N)=O)NC(=O)[C@H](C)NC(=O)[C@H](Cc2c[nH]c3ccccc23)NC(=O)[C@H](Cc2ccc(O)cc2)NC(=O)[C@H](CCC(=O)O)NC1=O)[C@@H](C)O [MP-4004] | < 4.30 | 7.573 |  |  | Solubility [2]: Poorly Behaved; Partition Coeff LogD [3]: Poorly Behaved

Source: article PMC10786919, “Design-rules for stapled peptides with in vivo activity and their application to Mdm2/X antagonists” (Nature Communications, 2024)
